The record followed here is ChEMBL document CHEMBL1201862, “PubChem BioAssay data set” (2004).

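Interpolation was linear, between the two tested concentrations surrounding the appropriate level; five concentrations were tested over 48 hours in 96-well plates. Abbreviation: GI50, concentration required for 50% inhibition of growth.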 The source made the active and inactive calls. Cut-off read from the data, not from the text of the source: active = GI50 up to about 1.1 µM and inactive = higher.

Among the test systems are SK-MEL-5; BT-549; OVCAR-5; OVCAR-8; MDA-MB-231; NCI-H460; LOX IMVI; Hs-578T; SNB-19; OVCAR-3; IGROV-1; HOP-92; MOLT-4; SN12C; SF-268; SNB-75; KM12; SW-620; HCC 2998.
Holding throughout (test): inhibition of tumour cell growth, NCI panel, 48 h

For `Cc1ccc2c(ccc3[nH]cc(CNc4ccc(NS(C)(=O)=O)cc4)c32)n1`, the GI50 in the assay on SK-MEL-5 is 18.6 µM (inactive); in the assay with BT-549, 35.4 µM (inactive); in the assay with OVCAR-5, 23.8 µM (inactive); with OVCAR-8 it was 25.7 µM (inactive); with MDA-MB-231 it was 25.3 µM (inactive); with NCI-H460, 18.9 µM (inactive). The GI50 with LOX IMVI was 20.6 µM (inactive); in the assay on Hs-578T, 27.4 µM (inactive); in the assay with SNB-19, 36.4 µM (inactive); with OVCAR-3, 19.7 µM (inactive); in the assay with IGROV-1, 27.8 µM (inactive); in the assay on HOP-92, 26.7 µM (inactive). Further, the GI50 in the assay on MOLT-4 was 18.6 µM (inactive); in the assay on SN12C it was 27.2 µM (inactive); with SF-268 it was 23 µM (inactive); in the assay on SNB-75, 18.8 µM (inactive); in the assay with KM12 it was 18.3 µM (inactive); in the assay with SW-620, 31.2 µM (inactive).

In the case of `CCN(CC)CCNc1ccc2nnn3c4ccc(OC(C)=O)cc4c(=O)c1c23`, the GI50 with SK-MEL-5 was 1.88 µM (inactive); with BT-549, 13.4 µM (inactive); in the assay on OVCAR-5 it was 11.7 µM (inactive); in the assay with OVCAR-8 it was 1.15 µM (inactive); in the assay with MDA-MB-231, 2.65 µM (inactive); in the assay on NCI-H460, 0.243 µM (active). Moreover, the GI50 with LOX IMVI was 1.47 µM (inactive); with Hs-578T, 4.39 µM (inactive); with HCC 2998 it was 2.53 µM (inactive); in the assay on SNB-19 it was > 20.3 µM (inactive); with OVCAR-3 it was 7.96 µM (inactive); in the assay with IGROV-1 it was 0.224 µM (active). The GI50 in the assay with HOP-92 is 3.9 µM (inactive); in the assay on MOLT-4, 0.284 µM (active); with SN12C, 2.26 µM (inactive); in the assay with SF-268, 3.01 µM (inactive); with KM12 it was 3.15 µM (inactive); in the assay with SW-620 it was 1.11 µM (active).

With `N=C(N)N/N=C/c1nc2n(c1[N+](=O)[O-])CCS2`, the GI50 in the assay on SK-MEL-5 was 18.5 µM (inactive); with BT-549, 31.6 µM (inactive); in the assay on OVCAR-5, 43.8 µM (inactive); in the assay on OVCAR-8, 15.7 µM (inactive); in the assay with MDA-MB-231, 29 µM (inactive); with NCI-H460, 18.1 µM (inactive). Also, the GI50 was 15.7 µM (inactive) in the assay on LOX IMVI; 30.3 µM (inactive) with Hs-578T; 27.5 µM (inactive) in the assay with SNB-19; 7.35 µM (inactive) in the assay on OVCAR-3; 50.2 µM (inactive) with IGROV-1; > 100 µM (inactive) with HOP-92. Moreover, the GI50 in the assay with MOLT-4 is 22.2 µM (inactive); in the assay on SN12C it was 22 µM (inactive); in the assay on SF-268 it was 10.6 µM (inactive); with SNB-75, 23.9 µM (inactive); with KM12 it was 25 µM (inactive); in the assay with SW-620 it was 28.4 µM (inactive).

In the case of `CC[C@@]1(O)C(=O)OCc2c1cc1n(c2=O)Cc2c-1nc1ccccc1c2/C=N\NC(=O)C(N)CO` (some centres undefined), the GI50 with SK-MEL-5 is 0.684 µM (active); in the assay with BT-549, 2.56 µM (inactive); in the assay on OVCAR-5, 13.4 µM (inactive); in the assay with OVCAR-8, 0.596 µM (active); in the assay on MDA-MB-231, 28.4 µM (inactive); in the assay with NCI-H460, 0.184 µM (active). In addition, the GI50 in the assay on LOX IMVI was 0.329 µM (active); in the assay on Hs-578T, > 67.9 µM (inactive); in the assay on HCC 2998, 12.1 µM (inactive); in the assay with SNB-19, 0.202 µM (active); in the assay on OVCAR-3, 16.2 µM (inactive); in the assay with IGROV-1, 7.59 µM (inactive). The GI50 is 1.87 µM (inactive) in the assay on HOP-92; 0.0466 µM (active) with MOLT-4; 0.182 µM (active) in the assay on SN12C; 0.0643 µM (active) in the assay on SF-268; 5.92 µM (inactive) in the assay with KM12; 1.62 µM (inactive) in the assay with SW-620.

Take `CC(=O)NCCC1CNc2ccccc21` (centres undefined): the GI50 in the assay with SK-MEL-5, with BT-549, in the assay with OVCAR-5, in the assay on OVCAR-8, with MDA-MB-231 and in the assay on NCI-H460 was > 100 µM (inactive) each time. Also, the GI50 with LOX IMVI, with Hs-578T, with HCC 2998, in the assay with SNB-19, in the assay on OVCAR-3 and in the assay on IGROV-1 was > 100 µM (inactive) in each case. For the same compound, the GI50 with HOP-92, with MOLT-4, in the assay on SN12C, in the assay with SF-268, in the assay on KM12 and in the assay with SW-620 was > 100 µM (inactive) throughout.

As to `N#CC(/N=N/c1ccc(Cl)cc1)c1nc2ccccc2o1` (centres undefined), the GI50 in the assay on SK-MEL-5 was > 100 µM (inactive); with BT-549 it was 32.6 µM (inactive); with OVCAR-5, > 100 µM (inactive); with OVCAR-8 it was 88.1 µM (inactive); in the assay on MDA-MB-231 it was 37 µM (inactive); with NCI-H460, > 100 µM (inactive). Moreover, the GI50 with Hs-578T is 42.7 µM (inactive); in the assay on HCC 2998, 33 µM (inactive); in the assay on SNB-19, 42.7 µM (inactive); in the assay on OVCAR-3, 37.9 µM (inactive); with HOP-92, 17.7 µM (inactive); in the assay with MOLT-4, 20.5 µM (inactive). The GI50 in the assay on SN12C is > 100 µM (inactive); in the assay with SF-268, 33.3 µM (inactive); with KM12, 89.7 µM (inactive).

Regarding `O=C1C=C(C2=CC(=O)C(=O)c3ccccc32)c2ccccc2C1=O`, the GI50 is 2.85 µM (inactive) with SK-MEL-5; 46.6 µM (inactive) with BT-549; 18.8 µM (inactive) with OVCAR-5; 20.2 µM (inactive) in the assay with OVCAR-8; 15.6 µM (inactive) with MDA-MB-231; 3.87 µM (inactive) in the assay on LOX IMVI. Besides, the GI50 in the assay with Hs-578T was 27.7 µM (inactive); with SNB-19, 29.7 µM (inactive); with OVCAR-3 it was 2.58 µM (inactive); with IGROV-1 it was 28.8 µM (inactive); in the assay with HOP-92, 11.3 µM (inactive); with MOLT-4, 2.44 µM (inactive). The GI50 in the assay on SN12C is 27 µM (inactive); in the assay with SF-268, 13.5 µM (inactive); in the assay with SNB-75 it was 22.4 µM (inactive); with KM12 it was 18.6 µM (inactive); with SW-620, 5.01 µM (inactive).

For the compound `Nc1ccc(Nc2cc(=O)[nH]c(=O)[nH]2)cc1Cl`, the GI50 in the assay on SK-MEL-5, with BT-549, in the assay with OVCAR-5, with OVCAR-8, in the assay with MDA-MB-231 and in the assay on NCI-H460 was > 100 µM (inactive) in each case. Further, the GI50 in the assay with LOX IMVI, in the assay with Hs-578T, in the assay with HCC 2998, in the assay on SNB-19, with OVCAR-3 and with HOP-92 was > 100 µM (inactive) each time. The GI50 in the assay on MOLT-4, in the assay with SN12C, in the assay with SF-268 and in the assay on SW-620 was > 100 µM (inactive) each time.

Take `FC(F)(F)C1(C(F)(F)F)OC(Cl)(Cl)C(Cl)(Cl)O1`: the GI50 with SK-MEL-5, with BT-549, in the assay on OVCAR-5, in the assay on OVCAR-8, in the assay with MDA-MB-231 and with NCI-H460 was > 10 µM (inactive) throughout. Further, the GI50 with LOX IMVI, in the assay with Hs-578T, with HCC 2998, in the assay on SNB-19, in the assay on OVCAR-3 and in the assay on IGROV-1 was > 10 µM (inactive) throughout. The GI50 with HOP-92, in the assay on SF-268, in the assay on KM12 and with SW-620 was > 10 µM (inactive) in each case.

As for `CCOP(=O)(OCC)C(Cc1ccc(Cl)cc1)NS(=O)(=O)c1ccc(C)cc1` (centres undefined), the GI50 in the assay with SK-MEL-5, with BT-549, in the assay on OVCAR-5, in the assay with OVCAR-8, in the assay with MDA-MB-231 and with NCI-H460 was > 100 µM (inactive) in each case. The GI50 in the assay on LOX IMVI, in the assay with Hs-578T, in the assay on HCC 2998, in the assay on SNB-19, with OVCAR-3 and in the assay on IGROV-1 was > 100 µM (inactive) in each case. Moreover, the GI50 is > 100 µM (inactive) with HOP-92; > 100 µM (inactive) with MOLT-4; 67.6 µM (inactive) in the assay with SN12C; > 100 µM (inactive) in the assay with SF-268; > 100 µM (inactive) in the assay on KM12; > 100 µM (inactive) in the assay with SW-620.

Turning to `O=S(=O)(O)c1cc(O)c2c(O)c(/N=N/c3cccc4ccccc34)c(S(=O)(=O)O)cc2c1`, the GI50 with SK-MEL-5, in the assay on BT-549, in the assay on OVCAR-5, in the assay with OVCAR-8, in the assay with MDA-MB-231 and with LOX IMVI was > 100 µM (inactive) throughout. The GI50 in the assay on Hs-578T, in the assay on SNB-19, with OVCAR-3, in the assay on IGROV-1, with HOP-92 and in the assay with MOLT-4 was > 100 µM (inactive) throughout. Further, the GI50 with SN12C, in the assay on SF-268, in the assay on SNB-75, with KM12 and in the assay with SW-620 was > 100 µM (inactive) in each case.
